Assay results as given in paper PMC6199744, “Development of Chemical Proteomics for the Folateome and Analysis of the Kinetoplastid Folateome” (ACS Infectious Diseases, 2018).
Read-outs that look alike come from different tables or passages of the source.

Test system: T. brucei lysate proteins
Assay type: binding, Trypanosoma brucei
Details: vehicle control = 1

`NCCOCCOCC(=O)Nc1nc2ncc(CNc3ccc(C(=O)NC(CCC(=O)O)C(=O)O)cc3)nc2c(=O)[nH]1` (stereo not shown) [compound 6] gave a fold change (protein TB427.06.2550 RNA-BINDING PROTEIN, PUTATIVE) of 0.94, a fold change (protein TB427.06.3500 ENDOSOMAL T[…] RME-8, PUTATIVE) of 0.83 and a fold change (protein TB427.06.3630 SPHINGOSINE 1-PHOSPHATE LYASE, PUTATIVE) of 0.95. It also gave a fold change (protein TB427.06.3650 ADP-RI[…], PUTATIVE) of 0.98, a fold change (protein TB427.06.3670 PAR[…] COMPONENT, PUTATIVE) of 0.88 and a fold change (protein TB427.06.4890 S-ADENOSYL[…], PUTATIVE) of 1.19. For the same compound, the fold change (protein TB427.06.700 ALANYL-TRNA SYNTHETASE, PUTATIVE) was 0.97, the “fold change vs vehicle control” value (protein TB427.07.1300 PROTEIN DISULFIDE ISOMERASE, PUTATIVE) was 1.37 and the fold change (protein TB427.07.2340 40S RIBOSOMAL PROTEIN S15, PUTATIVE) was 0.89. For the same compound, the fold change (protein TB427.07.2770 HY[…], CONSERVED) was 0.86, the fold change (protein TB427.07.3530 HY[…], CONSERVED) was 0.98 and the fold change (protein TB427.07.3980 IMMU[…], PUTATIVE) was 0.79. For the same compound, the “fold change vs vehicle control” value (protein TB427.07.4170 FATTY ACID ELONGASE, PUTATIVE) was 0.97, the fold change (protein TB427.07.4180 FATTY ACID ELONGASE, PUTATIVE) was 0.95 and the fold change (protein TB427.07.4970 GLUTAMINE SYNTHETASE, PUTATIVE) was 0.85. For the same compound, the fold change (protein TB427.07.7070 HY[…], CONSERVED) was 0.92, the “fold change vs vehicle control” value (protein TB427.07.7500 THYMINE-7-HYDROXYLASE, PUTATIVE) was 0.35 and the fold change (protein TB427.08.2060 HY[…], CONSERVED) was 0.87. It also gave a fold change (protein TB427.08.2080 HY[…], CONSERVED) of 1.19, a fold change (protein TB427.08.3490 HY[…], CONSERVED) of 0.98 and a fold change (protein TB427.08.3530 GLYCEROL-3-PHOSPHATE DEH[…]+], GLYCOSOMAL) of 1. For the same compound, the “fold change vs vehicle control” value (protein TB427.08.3660 PROTEIN TRANSPORT PROTEIN SEC23) was 0.99, the “fold change vs vehicle control” value (protein TB427.08.3750 NUCLEOLAR PROTEIN, PUTATIVE) was 0.96 and the fold change (protein TB427.08.3870 HY[…], CONSERVED) was 0.99. For the same compound, the fold change (protein TB427.08.4210 HY[…], CONSERVED) was 1.19, the fold change (protein TB427.08.650 CATION-TR[…], PUTATIVE) was 0.94 and the fold change (protein TB427.10.10020 HY[…], CONSERVED) was 0.97. The fold change (protein TB427.10.10350 PROTEIN KINASE, PUTATIVE) was 0.86, the fold change (protein TB427.10.10360 MICROTUBULE-[…], PUTATIVE) was 0.85 and the “fold change vs vehicle control” value (protein TB427.10.10610 PROTEIN TYROSINE PHOSPHATASE, PUTATIVE) was 1.7. The “fold change vs vehicle control” value (protein TB427.10.1100 60S RIBOSOMAL PROTEIN L9, PUTATIVE) was 1.14, the “fold change vs vehicle control” value (protein TB427.10.12510 P-TYPE H+-ATPASE, PUTATIVE) was 1.28 and the fold change (protein TB427.10.12710 HEAT SHOCK PROTEIN, PUTATIVE) was 1.53. The “fold change vs vehicle control” value (protein TB427.10.14470 INTR[…] PROTEIN IFT140, PUTATIVE) was 1.46, the fold change (protein TB427.10.1450 HY[…], CONSERVED) was 0.97 and the “fold change vs vehicle control” value (protein TB427.10.14550 ATP-DEPENDENT DEAD/H RNA HELICASE, PUTATIVE) was 1.1. For the same compound, the “fold change vs vehicle control” value (protein TB427.10.14930 HY[…], CONSERVED) was 0.95, the “fold change vs vehicle control” value (protein TB427.10.14950 RNA BINDING PROTEIN, PUTATIVE) was 0.98 and the fold change (protein TB427.10.14990 INTR[…] PROTEIN IFT80/CHE2, PUTATIVE) was 1.1. For the same compound, the fold change (protein TB427.10.15720 […]-ATP-ASE SUBUNIT 9) was 0.84, the fold change (protein TB427.10.2020 HEXOKINASE) was 1.29 and the fold change (protein TB427.10.2290 CHAPERONE PROTEIN DNAJ, PUTATIVE) was 0.86. For the same compound, the fold change (protein TB427.10.2440 METACASPASE MCA4) was 0.89, the “fold change vs vehicle control” value (protein TB427.10.3470 HY[…], CONSERVED) was 1.1 and the “fold change vs vehicle control” value (protein TB427.10.5810 HY[…], CONSERVED) was 1.81. For the same compound, the fold change (protein TB427.10.6150 […]/BEIGE PROTEIN, PUTATIVE) was 0.67, the fold change (protein TB427.10.6310 MAJOR VAULT PROTEIN, PUTATIVE) was 0.93 and the fold change (protein TB427.10.730 ATP SYNTHASE, PUTATIVE) was 0.83. The “fold change vs vehicle control” value (protein TB427.10.7620 MIT[…]-DEPENDENT ZINC METALLOPEPTIDASE, PUTATIVE) was 0.98, the “fold change vs vehicle control” value (protein TB427.10.8230 PROTEIN DISULFIDE ISOMERASE) was 1.84 and the fold change (protein TB427.10.8910 HY[…], CONSERVED) was 0.91. The “fold change vs vehicle control” value (protein TB927.10.13290 ETHANOLAMINE PHOSPHOTRANSFERASE (EPT)) was 1.14, the “fold change vs vehicle control” value (protein TB927.10.13780 GLYCOGEN SYNTHASE KINASE 3) was 0.99 and the “fold change vs vehicle control” value (protein TB927.10.14980 INTR[…] PROTEIN IFT52, PUTATIVE) was 1.23. For the same compound, the “fold change vs vehicle control” value (protein TB927.10.2640 INTR[…] PROTEIN IFT81, PUTATIVE) was 0.98, the “fold change vs vehicle control” value (protein TB927.10.2890 ENOLASE) was 1.58 and the fold change (protein TB927.10.2980 […]-ATPASE SUBUNIT 11) was 0.89. For the same compound, the fold change (protein TB927.10.3990 DHH1) was 1.1, the fold change (protein TB927.10.4180 TFIIF-[…] PHOSPHATASE, PUTATIVE) was 1 and the “fold change vs vehicle control” value (protein TB927.10.4570 […] 2) was 1.74. For the same compound, the fold change (protein TB927.10.5370 40S RIBOSOMAL PROTEIN S10, PUTATIVE) was 0.89, the fold change (protein TB927.10.5500 HY[…], CONSERVED) was 0.92 and the “fold change vs vehicle control” value (protein TB927.10.560 40S RIBOSOMAL PROTEINS S11, PUTATIVE) was 1.25. The fold change (protein TB927.10.6050 CLATHRIN HEAVY CHAIN) was 0.85, the fold change (protein TB927.10.7090 A[…]) was 1.37 and the “fold change vs vehicle control” value (protein TB927.10.8940 HY[…], CONSERVED) was 0.88. The fold change (protein TB927.2.2770 HY[…] TB927 2 2770) was 1.1, the fold change (protein TB927.2.3800 MRNA […], PUTATIVE) was 0.69 and the fold change (protein TB927.3.1240 PROTEIN PHOSPHATASE 2A, PUTATIVE) was 0.98. The “fold change vs vehicle control” value (protein TB927.3.2960 INOSINE-ADENOSINE-GUANOSINE-[…]) was 1.36, the fold change (protein TB927.3.3270 ATP-DEPENDENT PHOSPHOFRUCTOKINASE) was 0.93 and the “fold change vs vehicle control” value (protein TB927.3.3450 ADP-RI[…]-LIKE PROTEIN 3A, PUTATIVE) was 2.16. For the same compound, the “fold change vs vehicle control” value (protein TB927.3.3490 HIGH MOBILITY GROUP PROTEIN, PUTATIVE) was 1.55, the fold change (protein TB927.3.3780 TRYPAREDOXIN) was 0.94 and the “fold change vs vehicle control” value (protein TB927.3.5120 HY[…], CONSERVED (Ankyrin repeats (3 copies), putative)) was 1.38. For the same compound, the “fold change vs vehicle control” value (protein TB927.3.740 HY[…], CONSERVED) was 0.97, the “fold change vs vehicle control” value (protein TB927.4.2740 HY[…], CONSERVED (p25-alpha, putative)) was 1.55 and the fold change (protein TB927.4.3590 T[…] 1-BETA, PUTATIVE) was 1.46. For the same compound, the “fold change vs vehicle control” value (protein TB927.4.3820 HY[…], CONSERVED) was 0.99, the fold change (protein TB927.4.5310 SERINE/THREONINE-PROTEIN KINASE A, PUTATIVE) was 0.95 and the fold change (protein TB927.5.1630 HY[…], CONSERVED) was 0.86. For the same compound, the fold change (protein TB927.5.3220 SIGNAL PEPTIDASE TYPE I, PUTATIVE) was 0.87, the “fold change vs vehicle control” value (protein TB927.5.4440 DYNEIN LIGHT CHAIN, PUTATIVE) was 0.98 and the fold change (protein TB927.6.2200 HY[…], CONSERVED) was 1. For the same compound, the “fold change vs vehicle control” value (protein TB927.7.1750 60S RIBOSOMAL PROTEIN L7, PUTATIVE) was 1.31, the fold change (protein TB927.7.2140 HY[…]) was 0.83 and the “fold change vs vehicle control” value (protein TB927.7.4470 HY[…], CONSERVED) was 1.18. The “fold change vs vehicle control” value (protein TB927.7.7430 ATP SYNTHASE ALPHA CHAIN, MIT[…]) was 1.18, the fold change (protein TB927.8.1510 ATP-DEPENDENT DEAD/H RNA HELICASE, PUTATIVE) was 0.96 and the fold change (protein TB927.8.1990 PEROXIDOXIN) was 0.97. The fold change (protein TB927.8.4770 SMALL GTP-BINDING PROTEIN RAB18) was 0.96.
